Measured values: patent US7705016B2, “Regulation of food intake by modulation of long-chain fatty acyl-CoA levels in the hypothalamus” (Albert Einstein College of Medicine of Yeshiva University, priority 2003, dated 2010)

Biological target: T1, hypothalamic CPT1 (Rattus norvegicus, UniProt P32198)
T1 sequence (P32198 1-773): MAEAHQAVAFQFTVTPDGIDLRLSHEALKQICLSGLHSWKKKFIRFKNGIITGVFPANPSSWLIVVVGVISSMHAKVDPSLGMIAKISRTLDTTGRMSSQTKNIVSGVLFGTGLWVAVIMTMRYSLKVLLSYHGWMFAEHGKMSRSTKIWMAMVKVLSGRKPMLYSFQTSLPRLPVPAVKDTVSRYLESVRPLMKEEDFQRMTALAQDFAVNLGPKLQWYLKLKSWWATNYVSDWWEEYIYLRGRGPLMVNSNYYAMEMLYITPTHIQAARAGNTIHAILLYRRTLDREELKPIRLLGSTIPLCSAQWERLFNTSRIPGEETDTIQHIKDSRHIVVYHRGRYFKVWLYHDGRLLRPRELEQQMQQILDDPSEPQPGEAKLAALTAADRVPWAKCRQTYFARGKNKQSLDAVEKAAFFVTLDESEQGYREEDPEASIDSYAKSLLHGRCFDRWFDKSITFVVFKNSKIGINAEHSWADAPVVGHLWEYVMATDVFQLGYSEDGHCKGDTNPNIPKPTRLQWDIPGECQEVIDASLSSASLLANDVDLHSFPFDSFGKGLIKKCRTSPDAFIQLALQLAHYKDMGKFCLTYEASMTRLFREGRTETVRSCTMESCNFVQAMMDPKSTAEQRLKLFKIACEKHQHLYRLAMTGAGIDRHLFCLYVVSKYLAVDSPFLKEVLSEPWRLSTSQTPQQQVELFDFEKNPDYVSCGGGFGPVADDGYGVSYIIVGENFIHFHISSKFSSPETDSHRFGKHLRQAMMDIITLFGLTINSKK
Experiment: ICV infusion with pancreatic-insulin clamp, glucose kinetics (Example 1)
Assay type: in vivo
Set-up: CPT1 activity was measured in the particulate fraction of protein extracts from animals treated with ICV control injections; from tissue; host or cells: hypothalamus (arcuate nucleus) of male Sprague-Dawley rats, in vivo or ex vivo; Insulin (iU/ml): unit not given here
Conditions: for Food Intake: measured prior to acute ICV infusion, except CPT1L-Ribo group (3 days after ICV); for decrease in glucose production (GP): basal and equal insulin levels (~20 μU/ml), ICV; for glucose production (GP) during pancreatic clamp vs ICV vehicle controls: ~basal insulin concentrations, p<0.01
Procedure: Hypothalamic inhibition of CPT1 inhibits glucose production. Experiments were also designed to examine the effect of central inhibition of CPT-1 on whole body insulin action (FIG. 4a,b). Insulin action was assessed by a combination of ICV infusions with systemic pancreatic-insulin clamp studies (FIG. 4b). In these studies, the daily food intake was matched in the rats receiving ICV vector and ICV CPT1L-Ribo (Table 1). All rats also received an intra-arterial infusion of [3-^3H]-glucose for the last 4 hr of ICV infusion and a pancreatic/insulin clamp (insulin 1 mU/kg.min; somatostatin 3 μg/kg/min) during the last 2 hr of the study (Obici et al., 2002a; Obici et al., 2001). As expected in the presence of ˜basal circulating insulin levels (clamp procedure; Table 1), the rate of glucose infusion (GIR) required to maintain euglycemia was marginal in ICV control studies (vector-ST1340- or vehicle-infused animals; ˜0.8 mg/kg/min). By contrast, following ICV infusion of inhibitors of CPT-1 expression or activity glucose had to be infused at the rate of ˜5 mg/kg/min in order to prevent hypoglycemia. Thus, central inhibition of CPT-1 activity in the presence of fixed and basal insulin concentrations stimulates insulin action on glucose homeostasis.
Animal preparation for in vivo experiments. We studied ninety-three 10-week old male Sprague-Dawley rats (Charles River Breeding Laboratories, Wilmington, Mass.). Rats were housed in individual cages and subjected to a standard light-dark cycle. Three weeks prior to the in vivo studies, we placed a chronic catheter in the third cerebral ventricle by stereotaxic surgery (Obici et al., 2002a; Obici et al., 2001; Liu et al., 1998). One week before the pancreatic-insulin clamp protocols, we placed additional catheters in the right internal jugular and left carotid artery (Obici et al., 2001; Liu et al., 1998). All ICV solutions were dissolved in artificial cerebral spinal fluid (aCSF). Food intake was monitored daily.
Measurements of in vivo glucose kinetics and pancreatic-insulin clamp procedure. The infusion studies lasted a total of 360 min (FIG. 3a). Briefly, at t=0 min a primed-continuous ICV infusion of either CPT1 inhibitors or control solution was initiated and maintained for the remainder of the study. 2-tetradecylglydate (TDGA, a gift from Dr. Manuel Guzman) was dissolved in DMSO, diluted into aCSF (Harvard Apparatus) and infused ICV at a rate of 50 pmoles/hr. […] Prior to the pancreatic-insulin clamp studies, rats receiving ICV injection of either CPT1L-Ribo or vector control three days prior to the clamp procedure were randomized into two pair-fed experimental groups. A primed-continuous infusion of HPLC-purified [3-^3H]-glucose (New England Nuclear, Boston, Mass.; 40 μCi bolus, 0.4 μCi/min) was started at t=120 min and continued for the duration of the study (Obici et al., 2002a; Obici et al., 2001; Liu et al., 1998). Finally, a pancreatic-insulin clamp (Obici et al., 2002a; Obici et al., 2001; Liu et al., 1998) was initiated at t=240 min and lasted for 2 hours. This procedure involved the infusion of somatostatin (3 μg/kg/min), insulin (1 mU/kg/min), and glucose as needed to prevent hypoglycemia, or antibodies against C peptide (Linco) and Melanocortin Receptor type 2 (Chemicon). The rate of insulin infusion was designed to replace normal basal levels in postabsorptive rats.
Radioactivity of [^3H]glucose in plasma was measured from supernatants of Ba(OH)2 and ZnSO4 precipitates after evaporation to dryness for the removal of tritiated water (Somogyi pellet). The specific activity of tritiated water in plasma (Somogyi filtrate) was determined from the total counts of the protein-free supernatant before and after evaporation to dryness. Under steady state conditions for plasma glucose concentration, the rate of glucose disappearance (Rd) equals the rate of glucose appearance (Ra). […]

| Compound | Body wt. (Basal) | FFA (Basal) | Glucose (Basal) | Insulin (Basal) | Leptin (Basal) | Food Intake (Basal) | FFA (Clamp, steady-state) | Glucose (Clamp, steady-state) | Insulin (iU/ml) (Clamp, steady-state) | decrease in glucose production (GP) | glucose production (GP) during pancreatic clamp vs ICV vehicle controls |
| --- | --- | --- | --- | --- | --- | --- | --- | --- | --- | --- | --- |
| CCCCCCCCCCCCCCNC(=O)N[C@H](CC(=O)[O-])C[N+](C)(C)C [ST1326, (R)-N-(tetradecylcarbamoyl)-aminocarnitine] | 302 ± 4 g | 0.5 ± 0.1 mM | 8.1 ± 0.7 mM | 1.4 ± 0.2 ng/mL | 0.9 ± 0.1 ng/mL | 21 ± 2 g | 0.4 ± 0.1 mM | 8.1 ± 0.8 mM | 21 ± 2 | 44±7% | markedly inhibited GP |
| CPT1L-Ribo: plasmid (pTarget, CMV promoter) expressing a hammerhead ribozyme that specifically cleaves rat CPT1L mRNA, complexed to PEI for ICV injection (DNA CUGUACCAAAGAGCUGUAGAGUCCGUGAGGACGAAACGCCGCUCACAAUG) | 277 ± 8 g | 0.5 ± 0.1 mM | 8.2 ± 0.6 mM |  |  | 14 ± 2 g | 0.4 ± 0.1 mM | 8.1 ± 0.5 mM | 21 ± 2 | 30±3% | markedly inhibited GP |
